Molecules are shown by their SMILES.

The assay addresses T1, Dimer of Gag-Pol polyprotein [489-587] (Human immunodeficiency virus 1, UniProt P12497).
T1 construct: 489-587
The assay is described as follows: Protease Inhibition Assay. The settings on record: pH 5.5; 30 °C. As to the method: Sensitivity of HIV-1 protease activity to protease inhibitors was determined by a peptide substrate cleavage assay. Protease products were analyzed on a reverse-phase high-pressure liquid chromatograph.

Consider `CCC(C)C(NC(=O)[C@H](C/C=C/c1ccccc1)C[C@H](O)[C@H](Cc1ccccc1)NC(=O)OC(C)(C)C)C(=O)NCc1nc2ccccc2[nH]1` (stereo partly drawn) [tert-butyl N-[(2S,3S,5R)-5-({1-[(1H-1,3-benzodiazol-2-ylmethyl)carbamoyl]-2-methylbutyl}carbamoyl)-3-hydroxy-1-phenyl-5-[(2E)-3-phenylprop-2-en-1-yl]pentan-2-yl]carbamate], for which the IC50 turned out to be 0.03 nM.
`CCC(C)C(NC(=O)[C@H](Cc1ccccc1)C[C@H](O)[C@H](Cc1ccccc1)NC(=O)OC(C)(C)C)C(=O)NCc1nc2ccccc2[nH]1` (stereo partly drawn) [tert-butyl N-[(2S,3S,5R)-5-({1-[(1H-1,3-benzodiazol-2-ylmethyl)carbamoyl]-2-methylbutyl}carbamoyl)-5-benzyl-3-hydroxy-1-phenylpentan-2-yl]carbamate]: 0.07 nM corresponded to half-maximal inhibition (IC50).

Broadly, the IC50 is the point on the concentration scale where inhibition reaches its midpoint. A low value points to higher potency.

Source of the values: BindingDB's records for doi:10.1021/jm00107a050 (Merck Research Laboratories, 1991).
